Measurements from patent US20230295181A1, “INHIBITOR OF APOPTOSIS (IAP) PROTEIN ANTAGONISTS” (Sanford Burnham Prebys Medical Discovery Institute, priority 2020, published 2023).
Where a name gives a salt, the structure may show the parent alone.

Tests used:
Assay type in all cases: cell-based
SKOV-3 = assay: Cell viability (CellTiterGlo), SKOV-3; conditions: Homo sapiens, SK-OV-3
Protocol: (§1) Candidate compounds are tested in 384-well plates for effects on cell viability in the presence or absence of an appropriate conventional anticancer drug. Cell viability is indirectly monitored in the first instance using CellTiterGlo (Promega Corp., Madison, WI) (Table D). To determine if cell death is apoptotic, the induction of caspase activity is assessed utilizing the CaspaseGlo Assay system (Promega Corp., Madison, WI) (Table E). Cell viability is monitored 1 to 3 days after addition of compounds and conventional drugs. […] A compound of any of the formulae as disclosed herein is evaluated in combination with said anticancer drug to determine which ML-IAP antagonist can sensitize most efficaciously. Select candidate compounds are tested in 14 point drug dose response (DDR) curves in a 384-well format in order to establish potency in combination with decreasing concentrations of lung cancer relevant drug regimens. Furthermore, checker-board titrations of a conventional drug and the candidate molecules are performed to search for synergy (using ISOBOLOGRAM analysis). Compounds and combinations as described herein are also tested for cytotoxicity against normal human cells (e.g. primary fibroblasts, lymphocytes, hepatocytes, epithelial and endothelial cells) using known methods.
(§2) Cell viability was evaluated following treatment with a compound as disclosed in Table D. Viability of cancer cells following treatment is indicated according to the following legend: […]

SKOV-3 cancer cell lines = assay: SKOV-3 cell viability after treatment with 10 μM test compound; conditions: for viability at 10 µM: Homo sapiens, SK-OV-3, 10 micromolar test compound, SKOV-3 cells; for % viability after treatment with 10 micromolar of test compound (SKOV-3 cells): 10 micromolar test compound, hydrochloride
Protocol: SKOV-3 cancer cell lines were treated with a test compound, either as a pure enantiomer or a mixture of stereoisomers, at a concentration of 10 μM. Cell viability was evaluated following treatment with a compound as disclosed in Table B. Viability of cancer cells following treatment is indicated according to the following legend:
A=0-25% viability B=26-50% viability C=>50% viability

OVCAR-4 = assay: Cell viability (CellTiterGlo), OVCAR-4; conditions: Homo sapiens
Protocol: as §1, §2

With `CN[C@@H](C)C(=O)N[C@H]1CCO[C@H]2CC(C)(C)[C@@H](C(=O)N[C@@H]3CCOc4ccccc43)N2C1=O` [Compound 74, (4S,7S,9aS)—N—((R)-chroman-4-yl)-8,8-dimethyl-4-((S)-2-(methylamino)propanamido)-5-oxooctahydropyrrolo[2,1-b][1,3]oxazepine-7-carboxamide hydrochloride] the IC50 (SKOV-3) was 10 to 100 nM, the viability at 10 µM (SKOV-3 cancer cell lines) was 0 to 25% and the IC50 (OVCAR-4) was 100 to 1000 nM.

`CN[C@@H](C)C(=O)N[C@H]1CCS[C@H]2CC(CCc3ccccc3)[C@@H](C(=O)N[C@@H]3CCCc4ccccc43)N2C1=O` (stereo partly drawn) [Compound 44, (4S,9aS)-4-((S)-2-(methylamino)propanamido)-5-oxo-8,8-phenethyl-N—((R)-1,2,3,4-tetrahydronaphthalen-1-yl)octahydropyrrolo[2,1-b][1,3]thiazepine-7-carboxamide hydrochloride] was tested, and the IC50 (SKOV-3) was > 1000 nM, the “% viability after treatment with 10 micromolar of test compound (SKOV-3 cells)” value (“% viability after treatment” for short) (SKOV-3 cancer cell lines) was “A (A=0-25% viability)” and the IC50 (OVCAR-4) was > 1000 nM.

For `CN[C@@H](C)C(=O)N[C@H]1Cc2ccc(OC)cc2[C@H]2CC(C)(C)[C@@H](C(=O)N[C@@H]3CCCc4ccccc43)N2C1=O` [Compound 11, (6S,11bR)-10-methoxy-2,2-dimethyl-6-((S)-2-(methylamino)propanamido)-5-oxo-N—((R)-1,2,3,4-tetrahydronaphthalen-1-yl)-2,3,5,6,7,11b-hexahydro-1H-benzo[c]pyrrolo[1,2-a]azepine-3-carboxamide hydrochloride], the IC50 (SKOV-3) was > 1000 nM, the viability at 10 µM (SKOV-3 cancer cell lines) was 26 to 50% and the IC50 (OVCAR-4) was > 1000 nM.

For `CN[C@@H](C)C(=O)N[C@H]1CCO[C@H]2CC(C)(C)[C@@H](C(=O)NCCC(C)C)N2C1=O` [Compound 70, (4S,7S,9aS)—N-isopentyl-8,8-dimethyl-4-((S)-2-(methylamino)propanamido)-5-oxooctahydropyrrolo[2,1-b][1,3]oxazepine-7-carboxamide hydrochloride], the IC50 (SKOV-3) was > 1000 nM, the viability at 10 µM (SKOV-3 cancer cell lines) was > 50% and the IC50 (OVCAR-4) was > 1000 nM.

With `CN[C@@H](C)C(=O)N[C@H]1CC(CSc2ccccc2)O[C@H]2CC(C)(C)C(C(=O)N[C@@H]3CCCc4ccccc43)N2C1=O` (mixture of isomers) [Compound 75, rac-(4R)-8,8-dimethyl-4-((R)-2-(methylamino)propanamido)-5-oxo-2-((phenylthio)methyl)-N—((S)-1,2,3,4-tetrahydronaphthalen-1-yl)octahydropyrrolo[2,1-b][1,3]oxazepine-7-carboxamide hydrochloride] the IC50 (SKOV-3) was 10 to 100 nM, the viability at 10 µM (SKOV-3 cancer cell lines) was 0 to 25% and the IC50 (OVCAR-4) was 10 to 100 nM.

With `CN[C@@H](C)C(=O)N[C@H]1CCS[C@H]2CC(CCc3ccccc3)(CCc3ccccc3)[C@@H](C(=O)N[C@@H]3CCCc4ccccc43)N2C1=O` [Compound 45, (4S,9aS)-4-((S)-2-(methylamino)propanamido)-5-oxo-8,8-diphenethyl-N—((R)-1,2,3,4-tetrahydronaphthalen-1-yl)octahydropyrrolo[2,1-b][1,3]thiazepine-7-carboxamide hydrochloride] the IC50 (SKOV-3) was 100 to 1000 nM, the viability at 10 µM (SKOV-3 cancer cell lines) was 0 to 25% and the IC50 (OVCAR-4) was > 1000 nM.

`CN[C@@H](C)C(=O)N[C@H]1CCS[C@H]2CC(C(C)C)(C(C)C)[C@@H](C(=O)N[C@@H]3CCCc4ccccc43)N2C1=O` [Compound 41, 4S,9aS)-8,8-diisopropyl-4-((S)-2-(methylamino)propanamido)-5-oxo-N—((R)-1,2,3,4-tetrahydronaphthalen-1-yl)octahydropyrrolo[2,1-b][1,3]thiazepine-7-carboxamide hydrochloride] was tested, and the IC50 (SKOV-3) was > 1000 nM, the “% viability after treatment” value (SKOV-3 cancer cell lines) was “A (A=0-25% viability)” and the IC50 (OVCAR-4) was > 1000 nM.

`CCC1(CC)C[C@@H]2OCC[C@H](NC(=O)[C@H](C)NC)C(=O)N2[C@@H]1C(=O)N[C@@H]1CCCc2ccccc21` [Compound 21, (4S)-8,8-diethyl-4-((S)-2-(methylamino)propanamido)-5-oxo-N—((R)-1,2,3,4-tetrahydronaphthalen-1-yl)octahydropyrrolo[2,1-b][1,3]oxazepine-7-carboxamide hydrochloride] was tested, and the IC50 (SKOV-3) was 10 to 100 nM, the viability at 10 µM (SKOV-3 cancer cell lines) was 0 to 25% and the IC50 (OVCAR-4) was 100 to 1000 nM.

For `C=CCC1(CC=C)C[C@@H]2OCC[C@H](NC(=O)[C@H](C)NC)C(=O)N2[C@@H]1C(=O)N[C@@H]1CCCc2ccccc21` [Compound 14, (4S,9aS)-8,8-diallyl-4-((S)-2-(methylamino)propanamido)-5-oxo-N—((R)-1,2,3,4-tetrahydronaphthalen-1-yl)octahydropyrrolo[2,1-b][1,3]oxazepine-7-carboxamide hydrochloride], the IC50 (SKOV-3) was 100 to 1000 nM, the viability at 10 µM (SKOV-3 cancer cell lines) was 0 to 25% and the IC50 (OVCAR-4) was 100 to 1000 nM.

`C=CCC1C[C@@H]2SCC[C@H](NC(=O)[C@H](C)NC)C(=O)N2[C@@H]1C(=O)N[C@@H]1CCCc2ccccc21` (stereo partly drawn) [Compound 32, (4S,9aS)-8,8-allyl-4-((S)-2-(methylamino)propanamido)-5-oxo-N—((R)-1,2,3,4-tetrahydronaphthalen-1-yl)octahydropyrrolo[2,1-b][1,3]thiazepine-7-carboxamide hydrochloride] was tested, and the IC50 (SKOV-3) was 10 to 100 nM, the “% viability after treatment” value (SKOV-3 cancer cell lines) was “A (A=0-25% viability)” and the IC50 (OVCAR-4) was > 1000 nM.

For `CN[C@@H](C)C(=O)N[C@H]1CCOC2CC(C)(C)[C@@H](C(=O)Nc3ccccc3-c3ncccn3)N2C1=O` (stereo partly drawn) [Compound 55, (4S,7S)-8,8-dimethyl-4-((S)-2-(methylamino)propanamido)-5-oxo-N-(2-(pyrimidin-2-yl)phenyl)octahydropyrrolo[2,1-b][1,3]oxazepine-7-carboxamide hydrochloride], the IC50 (SKOV-3) was > 1000 nM, the viability at 10 µM (SKOV-3 cancer cell lines) was > 50% and the IC50 (OVCAR-4) was > 1000 nM.

Compound `C=CCC1C[C@@H]2OCC[C@H](NC(=O)[C@H](C)NC)C(=O)N2[C@H]1C(=O)N[C@@H]1CCCc2ccccc21` (stereo partly drawn) [Compound 13, (4S,9aS)-8,8-allyl-4-((S)-2-(methylamino)propanamido)-5-oxo-N—((R)-1,2,3,4-tetrahydronaphthalen-1-yl)octahydropyrrolo[2,1-b][1,3]oxazepine-7-carboxamide hydrochloride] has a viability at 10 µM (SKOV-3 cancer cell lines) of 26 to 50%.

Work on `C=CCC1(CC=C)C[C@@H]2SCC[C@H](NC(=O)[C@H](C)NC)C(=O)N2[C@H]1C(=O)N[C@@H]1CCCc2ccccc21` [Compound 28, (4S,9aS)-8,8-diallyl-4-((S)-2-(methylamino)propanamido)-5-oxo-N—((R)-1,2,3,4-tetrahydronaphthalen-1-yl)octahydropyrrolo[2,1-b][1,3]thiazepine-7-carboxamide hydrochloride] yielded a viability at 10 µM (SKOV-3 cancer cell lines) of 26 to 50%.

With `C=CCC1(CC=C)C[C@@H]2SCC[C@H](NC(=O)[C@H](C)NC)C(=O)N2[C@@H]1C(=O)N[C@@H]1CCCc2ccccc21` [Compound 31, (4S,9aS)-8,8-diallyl-4-((S)-2-(methylamino)propanamido)-5-oxo-N—((R)-1,2,3,4-tetrahydronaphthalen-1-yl)octahydropyrrolo[2,1-b][1,3]thiazepine-7-carboxamide hydrochloride] the “% viability after treatment” value (SKOV-3 cancer cell lines) was “B (B=26-50% viability)”.
